Assay results: patent US9074255B2, “Method of predicting a predisposition to QT prolongation” (Vanda Pharmaceuticals, Inc., priority 2009, dated 2015)

Columns and labels:
QT interval [1] = experiment: FAM13A1 SNP genotypes and QT prolongation (QTcF) following administration of iloperidone; type: in vivo, human
Procedure: (§1) Since the QT interval changes with changes in heart rate, the QT interval is often measured as a corrected QT (QTc) interval. Any number of formulas may be employed to calculate the QTc, including, for example, the Fridericia formula (QTcF), the Bazett formula (QTcB), and the Rautaharju formula (QTp), among others. In the studies described herein, QT was calculated using the Fridericia formula. However, the present invention includes the use of any such formula or method for calculating a QTc or an uncorrected QT.

QT interval [2] = experiment: QT prolongation vs presence or absence of TT genotype at rs3775378 in 174 individuals given iloperidone; type: in vivo, human; conditions: 24 mg/day B.I.D. oral, two weeks
Procedure: as §1, with “QT. Using the genotypes at the SNP loci above, it is possible, with a high degree of certainty, to predict an individual's predisposition to QT prolongation.” for “QT.”

Structure (SMILES): COc1cc(C(C)=O)ccc1OCCCN1CCC(c2noc3cc(F)ccc23)CC1 [iloperidone, 1-[4-[3-[4-(6-fluoro-1,2-benzisoxazol-3-yl)-1-piperidinyl]propoxy]-3-methoxyphenyl]ethanone]
- Lowest QTc change (genotype) (QT interval [1]; SNP_A-1824897, rs10008568, allele A=A, B=G): nonAB
- Lowest QTc change (genotype) (QT interval [1]; SNP_A-1906173, rs3775378, allele A=C, B=T): non-BB
- Lowest QTc change (genotype) (QT interval [1]; SNP_A-1943446, rs17014602, allele A=C, B=G): non-AA
- Lowest QTc change (genotype) (QT interval [1]; SNP_A-1977994, rs17014483, allele A=C, B=T): non-BB
- Lowest QTc change (genotype) (QT interval [1]; SNP_A-2152738, rs1458553, allele A=A, B=G): nonAA
- Lowest QTc change (genotype) (QT interval [1]; SNP_A-2190887, rs2609260, allele A=A, B=G): nonAB
- Lowest QTc change (genotype) (QT interval [1]; SNP_A-4287986, rs2609265, allele A=C, B=T): nonAB
- Lowest QTc change (genotype) (QT interval [1]; SNP_A-4290819, rs17014687, allele A=C, B=T): non-BB
- Lowest QTc change (genotype) (QT interval [1]; SNP_A-4291320, rs2609264, allele A=C, B=T): nonAB
- Lowest QTc change (genotype) (QT interval [1]; SNP_A-4296194, rs12507401, allele A=C, B=G): non-AA
- High QT, + test (number of individuals) (QT interval [2]; Change threshold QT > 5 msec): 9
- High QT, − test (number of individuals) (QT interval [2]; Change threshold QT > 5 msec): 101
- Low QT, + test (number of individuals) (QT interval [2]; Change threshold QT > 5 msec): 0
- Low QT, − test (number of individuals) (QT interval [2]; Change threshold QT > 5 msec): 63
- High QT, + test (number of individuals) (QT interval [2]; Change threshold QT > 15 msec): 8
- High QT, − test (number of individuals) (QT interval [2]; Change threshold QT > 15 msec): 59
- Low QT, + test (number of individuals) (QT interval [2]; Change threshold QT > 15 msec): 1
- Low QT, − test (number of individuals) (QT interval [2]; Change threshold QT > 15 msec): 105
- High QT, + test (number of individuals) (QT interval [2]; Change threshold QT > 30 msec): 6
- High QT, − test (number of individuals) (QT interval [2]; Change threshold QT > 30 msec): 22
- Low QT, + test (number of individuals) (QT interval [2]; Change threshold QT > 30 msec): 3
- Low QT, − test (number of individuals) (QT interval [2]; Change threshold QT > 30 msec): 142
